The test deals with T1, human GalR3 receptor (Homo sapiens, UniProt O60755).
T1 construct: expressed in transfected cells; membranes
T1 sequence (O60755 1-368): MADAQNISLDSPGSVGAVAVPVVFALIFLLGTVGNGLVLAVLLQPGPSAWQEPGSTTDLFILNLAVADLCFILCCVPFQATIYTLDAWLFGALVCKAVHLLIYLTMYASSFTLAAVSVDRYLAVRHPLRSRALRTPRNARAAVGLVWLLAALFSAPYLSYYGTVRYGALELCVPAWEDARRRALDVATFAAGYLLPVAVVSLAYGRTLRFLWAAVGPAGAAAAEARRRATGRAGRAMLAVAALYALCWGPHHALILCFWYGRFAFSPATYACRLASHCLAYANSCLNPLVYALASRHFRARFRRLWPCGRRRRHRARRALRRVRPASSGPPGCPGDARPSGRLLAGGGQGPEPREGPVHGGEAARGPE
The test is described as follows: Radioligand binding at cloned human GalR3 receptor. The conditions noted are these: Binding Data; membranes of LM(tk-) cells stably transfected with human GalR3. The method, then:
The present invention provides for a method of determining the binding affinity of a GalR3 antagonist, wherein the GalR3 antagonist is dissolved in a “suitable solvent”. A “suitable solvent” means one which permits the measurement of binding affinity of the GalR3 antagonist to the human GalR3 receptor at concentrations less than 1 μM, preferably less than 100 nM. Examples of solvents include, but are not limited to, DMSO, ethanol, N,N-dimethylacetamide, or water. For indolones, the preferred solvent is 3% DMSO (final concentration in the assay). For any other type of compounds, the preferred solvent is the solvent which permits the measurement of binding affinity of a GalR3 antagonist at the lowest concentration.
COS-7 cells were grown on 150 mm plates in D-MEM with supplements (Dulbecco's Modified Eagle Medium with 10% bovine calf serum, 4 mM glutamine, 100 units/ml penicillin, 100 μg/ml streptomycin) at 37° C. with 5% CO2. Stock plates of COS-7 cells were trypsinized and split 1:6 every 3–4 days. Human embryonic kidney 293 cells were grown on 150 mm plates in D-MEM with supplements (minimal essential medium) with Hanks' salts and supplements (Dulbecco's Modified Eagle Medium with 10% bovine calf serum, 4 mM glutamine, 100 units/ml penicillin, 100 μg/ml streptomycin) at 37° C. with 5% CO2. Stock plates of 293 cells were trypsinized and split 1:6 every 3–4 days. Mouse fibroblast LM(tk-) cells were grown on 150 mm plates in D-MEM with supplements (Dulbecco's Modified Eagle Medium with 10% bovine calf serum, 4 mM glutamine, 100 units/mL penicillin, 100 μg/mL streptomycin) at 37° C. with 5% CO2. Stock plates of LM(tk-) cells were trypsinized and split 1:10 every 3–4 days. Chinese Hamster Ovary (CHO) cells were grown on 150 mm plates in HAM's F12 medium with (HAM's F-12 with 10% bovine calf serum, 4 mM glutamine, 100 units/mL penicillin, 100 μg/mL streptomycin) at 37° C. with 5% CO2. Stock plates of CHO cells were trypsinized and split 1:8 every 3–4 days. LM(tk-) cells were stably transfected with the human GalR3 receptor.
cDNAs for the human and rat GalR3 receptors were transfected with a G-418 resistant gene into the mouse fibroblast LM(tk-) cell line by a calcium phosphate transfection method (Cullen, 1987).
Membranes were harvested from stably transfected LM(tk-) cells. Adherent cells were washed twice in ice-cold phosphate buffered saline (138 mM NaCl, 8.1 mM Na2HPO4, 2.5 mM KCl, 1.2 mM KH2PO4, 0.9 mM CaCl2, 0.5 mM MgCl2, pH 7.4) and lysed by sonication in ice-cold sonication buffer (20 mM Tris-HCl, 5 mM EDTA, pH 7.7). Large particles and debris were cleared by low speed centrifugation (200×g, 5 min, 4° C.). Membranes were collected from the supernatant fraction by centrifugation (32,000×g, 18 min, 4° C.), washed with ice-cold hypotonic buffer, and collected again by centrifugation (32,000×g, 18 min, 4° C.). The final membrane pellet was resuspended by sonication into a small volume of ice-cold binding buffer (˜1 ml for every 5 plates: 10 mM NaCl, 20 mM HEPES, 0.22 mM KH2PO4, 1.26 mM CaCl2, 0.81 mM MgSO4, pH 7.4). Protein concentration was measured by the Bradford method (Bradford, 1976) using Bio-Rad Reagent, with bovine serum albumin as a standard. Membranes were held on ice for up to one hour and used fresh, or flash frozen and stored in liquid nitrogen. Membranes were prepared similarly from CHO cells.
The methods to obtain the cDNA of the receptors, express said receptors in heterologous systems, and carry out assays to determine binding affinity are described as follows.
Binding assays were performed according to the following published method: human GALR3 (PCT International Publication No. WO 98/15570).

The structures appear in SMILES notation. pKi: −log10 of the molar value.

As usually defined, the pKi is −log10 of the Ki, conventionally taken in molar units. A high value points to a low Ki.

As for `O=C1/C(=N\c2cccc(C(F)(F)F)c2)c2ccccc2N1c1cccc(O)c1` [Example 7, 1-(3-HYDROXYPHENYL)-3-{[3-(TRIFLUOROMETHYL)PHENYL]IMINO}-1,3-DIHYDRO-2H-INDOL-2-ONE], the pKi is 7.55.

`O=C1/C(=N\c2cc(F)cc(F)c2)c2ccccc2N1c1ccc(O)cc1` [Example 6, 3-[(3,5-DIFLUOROPHENYL)IMINO]-1-(4-HYDROXYPHENYL)-1,3-DIHYDRO-2H-INDOL-2-ONE] showed a pKi of 7.39. Then `COc1ccc(N2C(=O)/C(=N\c3cccc(C(F)(F)F)c3)c3ccccc32)cn1` [Example 10, 3-[(3-TRIFLUOROMETHYLPHENYL)IMINO]-1-(6-METHOXY-3-PYRIDINYL)-1,3-DIHYDRO-2H-INDOL-2-ONE], with 7.51. In turn, `O=C1/C(=N\c2cccc(C(F)(F)F)c2)c2cc(O)ccc2N1c1ccccc1` [Example 9, 5-HYDROXY-1-PHENYL-3-{[3-(TRIFLUOROMETHYL)PHENYL]IMINO}-1,3-DIHYDRO-2H-INDOL-2-ONE] showed a pKi of 7.24.

Turning to `O=C1/C(=N\c2ccc(Cl)c(Cl)c2)c2ccccc2N1c1ccc(O)cc1` [Example 5, 3-[(3,4-DICHLOROPHENYL)IMINO]-1-(4-HYDROXYPHENYL)-1,3-DIHYDRO-2H-INDOL-2-ONE], the pKi is 7.57. Consider `O=C1/C(=N\c2ccc3c(c2)OC(F)(F)O3)c2ccccc2N1c1ccc(O)cc1` [Example 1, 3-[(2,2-DIFLUORO-1,3-BENZODIOXOL-5-YL)IMINO]-1-(4-HYDROXYPHENYL)-1,3-DIHYDRO-2H-INDOL-2-ONE], for which the pKi was 7.14. Molecule `O=C1/C(=N\c2cccc(C(F)(F)F)c2)c2ccc(O)cc2N1c1ccccc1` [Example 4, 6-HYDROXY-1-PHENYL-3-{[3-(TRIFLUOROMETHYL)PHENYL]IMINO}-1,3-DIHYDRO-2H-INDOL-2-ONE] showed a pKi of 7.26. Then `COc1ccc(N2C(=O)/C(=N\c3ccc(Cl)c(Cl)c3)c3ccccc32)cn1` [Example 2, 3-[(3,4-DICHLOROPHENYL)IMINO]-1-(6-METHOXY-3-PYRIDINYL)-1,3-DIHYDRO-2H-INDOL-2-ONE], with 7.82; and `COc1ccc(N2C(=O)C(=Nc3ccc(Cl)c(Cl)c3)c3cc(Cl)ccc32)cn1` (racemic) [Example 3, 5-CHLORO-3-[(3,4-DICHLOROPHENYL)IMINO]-1-(6-METHOXY-3-PYRIDINYL)-1,3-DIHYDRO-2H-INDOL-2-ONE], with 7.70. `O=C1/C(=N\c2cccc(C(F)(F)F)c2)c2ccccc2N1c1ccccc1O` [Example 8, 1-(2-HYDROXYPHENYL)-3-{[3-(TRIFLUOROMETHYL)PHENYL]IMINO}-1,3-DIHYDRO-2H-INDOL-2-ONE] had a pKi of 7.17.
